The IC50 is the concentration that gives 50% inhibition.

The values below come from US11161825B2, “4-oxo-2,3,4,5-tetrahydro-1H-1,5-benzodiazepine-7-carboxamides” (Bayer Aktiengesellschaft, priority 2017, dated 2021).

Test [1] concerns the target T1, untagged full length SMYD3 (Homo sapiens, UniProt Q9H7B4).
T1 construct: As protein untagged full length SMYD3 was used
T1 sequence (Q9H7B4 1-428): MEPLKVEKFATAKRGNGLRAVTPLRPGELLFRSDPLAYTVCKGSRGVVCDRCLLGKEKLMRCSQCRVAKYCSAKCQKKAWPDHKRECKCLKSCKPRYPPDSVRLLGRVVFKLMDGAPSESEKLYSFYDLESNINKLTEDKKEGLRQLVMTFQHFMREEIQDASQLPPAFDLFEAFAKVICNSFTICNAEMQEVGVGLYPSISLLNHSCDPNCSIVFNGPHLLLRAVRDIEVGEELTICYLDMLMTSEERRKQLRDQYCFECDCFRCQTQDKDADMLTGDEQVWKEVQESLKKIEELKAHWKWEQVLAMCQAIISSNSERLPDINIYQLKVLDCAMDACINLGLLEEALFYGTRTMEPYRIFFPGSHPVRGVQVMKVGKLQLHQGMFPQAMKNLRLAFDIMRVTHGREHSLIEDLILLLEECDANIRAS
The experiment in a line: Thermal Shift Assay. Type of test: binding. The following applies: protein 1.5-2.0 μM, 5× SYPRO Orange, scans 25° C. to 80° C.; control 4% DMSO. As for the experimental part:
Thermal Shift Assay Thermal melting experiments were performed with a ViiA™ Real-Time PCR machine (Thermo Fisher Scientific) in 384-well microliter plate with a final volume of 5 μL. Melting curves were obtained at a protein concentration of 1.5-2.0 μM and 5× SYPRO Orange (Invitrogen) using buffer containing 20 mM Tris pH7.0; 150 mM NaCl; 1.0 mM DTT. As protein untagged full length SMYD3 was used. […] As control 4% DMSO was used. Scans were measured from 25° C. to 80° C. at a scanning rate of 0.1° C./sec. All TSA data were analyzed by using Genedata Assay Analyzer.

In the next test the target is T2, SMYD3 (Homo sapiens, UniProt Q9H7B4).
T2 construct: The SMYD3 full length enzyme was produced in-house by expression (with an N-terminal 6×His tag) in E. coli; 6xHis (N); made in house; host or cells: E. coli
T2 sequence (Q9H7B4 1-428): T1 sequence (Q9H7B4 1-428)
The experiment in a line: SMYD3 Scintillation Proximity Assay (SPA), methylation of MAP3K2 Peptide. Type of test: biochemical. The settings on record: SMYD3 full length enzyme 10 nM, 3H-SAM 125 nM, MAP3K2 Peptide 1 μM, 120 min at 22° C. The protocol: SMYD3 Scintillation Proximity Assay (SPA)
The SMYD3 full length enzyme was produced in-house by expression (with an N-terminal 6×His tag) in E. coli and purification by affinity chromatography on a Ni-NTA Sepharose column followed by a size exclusion chromatography step on a Superdex 200 16/60 column (GE Healthcare).
To this end, 100-fold concentrated compound solutions (in DMSO) were previously prepared by serial dilution (1:3.4) of 2 mM stocks in a clear low volume 384-well source microtiter plate (Greiner Bio-One), from which 100 nl of compounds were transferred into a white low volume test microtiter plate from the same supplier. […] The resulting mixture (5 μl final volume) was shortly centrifuged (2 min., 1500 rpm) and incubated at 22° C. during 120 min. […] Plates containing the stopped reaction were sealed with transparent adhesive foil (Perkin Elmer), centrifuged (2 min., 1500 rpm), and further incubated overnight at 4° C. in order to allow the SPA signals to develop. Subsequently, the amount of product was evaluated by measuring the energy transfer from the […] emitted by the 3H-labeled substrate to the scintillator co-polymerized in the bead's matrix, using a TopCount NXT scintillation counter (Packard) with the standard instrument settings for this purpose. The resulting scintillation counts were taken as indicator for the amount of methylated peptide per well. […] IC50 values were calculated by fitting the normalized inhibition data to a 4-parameter logistic equation using the XLFit analysis software (IDBS).
(Scintillation proximity formats need no separation of bound from free tracer.)

Take `CC1CC(=O)Nc2cc(C(=O)NCCC3CCC3)ccc2N1C(=O)c1ccccc1` (racemic) [Example 3, 1-benzoyl-N-(2-cyclobutylethyl)-2-methyl-4-oxo-2,3,4,5-tetrahydro-1H-1,5-benzodiazepine-7-carboxamide]: in test [1], the “Thermal shift assay (° C.)” value stood at 4.56 °C. The half-inhibitory concentration (IC50) at SMYD3 was 1630 nM.

As for `Cc1nocc1C(=O)N1c2ccc(C(=O)NCCC3CC3)cc2NC(=O)CC1C` (racemic) [Example 5, N-(2-cyclopropylethyl)-2-methyl-1-[(3-methyl-1,2-oxazol-4-yl)carbonyl]-4-oxo-2,3,4,5-tetrahydro-1H-1,5-benzodiazepine-7-carboxamide], in test [1], the “Thermal shift assay (° C.)” value was found to be 2.90 °C. Also, the IC50 against SMYD3 is over 20000 nM.

`Cc1nocc1C(=O)N1c2ccc(C(=O)NCCC3CC3)cc2NC(=O)C(C)C1C` (single isomer, unassigned) [Example 9, N-(2-cyclopropylethyl)-2,3-dimethyl-1-[(3-methyl-1,2-oxazol-4-yl)carbonyl]-4-oxo-2,3,4,5-tetrahydro-1H-1,5-benzodiazepine-7-carboxamide]: the “Thermal shift assay (° C.)” value in test [1] was found to be 1.82 °C. This compound also came in with an IC50 against SMYD3 of over 20000 nM. On the same counts, the results for `C[C@H]1CC(=O)Nc2cc(C(=O)NCCC3CC3)ccc2N1C(=O)N1CC[C@H](N)C1.Cl` [Example 37, (2S)-1-{[(3S)-3-aminopyrrolidin-1-yl]carbonyl}-N-(2-cyclopropylethyl)-2-methyl-4-oxo-2,3,4,5-tetrahydro-1H-1,5-benzodiazepine-7-carboxamide hydrochloride (1:1)] are 8.66 °C and 215 nM. Turning to `CC1C(=O)Nc2cc(C(=O)NCCC3CC3)ccc2N(C(=O)c2ccccc2)C1C` (mixture of isomers) [Example 2, 1-benzoyl-N-(2-cyclopropylethyl)-2,3-dimethyl-4-oxo-2,3,4,5-tetrahydro-1H-1,5-benzodiazepine-7-carboxamide], the “Thermal shift assay (° C.)” value in test [1] came to 5.21 °C. This compound had an IC50 at SMYD3 of 1260 nM. `Cc1nocc1C(=O)N1c2ccc(C(=O)NCCC3CCC3)cc2NC(=O)C(C)C1C` (single isomer, unassigned) [Example 14, N-(2-cyclobutylethyl)-2,3-dimethyl-1-[(3-methyl-1,2-oxazol-4-yl)carbonyl]-4-oxo-2,3,4,5-tetrahydro-1H-1,5-benzodiazepine-7-carboxamide]: the “Thermal shift assay (° C.)” value in test [1] came out at 1.15 °C. Moreover, on SMYD3, the IC50 was over 20000 nM. `CCCCNC(=O)c1ccc2c(c1)NC(=O)CC(C)N2C(=O)C1CC1` (racemic) [Example 50, N-butyl-1-(cyclopropylcarbonyl)-2-methyl-4-oxo-2,3,4,5-tetrahydro-1H-1,5-benzodiazepine-7-carboxamide] showed an IC50 against SMYD3 of 35000 nM. Still for that read-out and setting: with `C[C@H]1CC(=O)Nc2cc(C(=O)N(C)CCC3CC3)ccc2N1C(=O)N1CC2CC2C1` (stereo partly drawn) [Example 54, (2S)-1-(3-azabicyclo[3.1.0]hexane-3-carbonyl)-N-(2-cyclopropylethyl)-N,2-dimethyl-4-oxo-2,3,4,5-tetrahydro-1H-1,5-benzodiazepine-7-carboxamide] the figure was 2530 nM.

On to `C[C@@H]1CC(=O)Nc2cc(C(=O)NCCC3CC3)ccc2N1C(=O)N1CC2CC2C1` (stereo partly drawn) [Example 55, (2R)-1-(3-azabicyclo[3.1.0]hexane-3-carbonyl)-N-(2-cyclopropylethyl)-2-methyl-4-oxo-2,3,4,5-tetrahydro-1H-1,5-benzodiazepine-7-carboxamide], for which the midpoint of inhibition against SMYD3, the IC50, lay at 2640 nM. On SMYD3, `C[C@@H]1CC(=O)Nc2cc(C(=O)N(C)CCC3CC3)ccc2N1C(=O)N1CC2CC2C1` (stereo partly drawn) [Example 56, (2R)-1-(3-azabicyclo[3.1.0]hexane-3-carbonyl)-N-(2-cyclopropylethyl)-N,2-dimethyl-4-oxo-2,3,4,5-tetrahydro-1H-1,5-benzodiazepine-7-carboxamide] came in with an IC50 of over 30000 nM. As to `CCCNC(=O)c1ccc2c(c1)NC(=O)CC(C)N2C(=O)c1cccs1` (racemic) [Example 49, 2-methyl-4-oxo-N-propyl-1-(2-thienylcarbonyl)-2,3,4,5-tetrahydro-1H-1,5-benzodiazepine-7-carboxamide], the “Thermal shift assay (° C.)” value in test [1] turned out to be 1.43 °C.
